The target in one experiment is IMPDH human type II (Homo sapiens, UniProt P12268). The experiment is described as follows: IMPDH activity inhibition assay (spectrophotometric, NADH formation at 340 nm). The format is biochemical.
Conditions: not given
As to the method:
We have measured the inhibition constants of each compound against IMPDH using an adaptation of the method first reported by […]. Moyed, and […]. Biol. Chem., 226, p. 339 (1957)]. We measured the inhibition constants of the compounds listed in Table III utilizing the following protocol: IMP dehydrogenase activity was assayed following an adaptation of the method first reported by […]. Moyed, H. S. and […]. Biol. Chem. 226, 339]. Enzyme activity was measured spectrophotometrically, by monitoring the increase in absorbance at 340 nm due to the formation of NADH (ε340 is 6220 M^-1 cm^-1). The reaction mixture contained 0.1 M Tris pH 8.0, 0.1 M KCl, 3 mM EDTA, 2 mM DTT, […] and enzyme (IMPDH human type II) at a concentration of 15 to 50 nM. This solution is incubated at 37° C. for 10 minutes. The reaction is started by adding NAD to a final concentration of 0.1 M and the initial rate is measured by following the linear increase in absorbance at 340 nm for 10 minutes. For reading in a standard spectrophotometer (path length 1 cm) the final volume in the cuvette is 1.0 ml. The assay has also been adapted to a 96 well microtiter plate format; in this case the concentrations of all the reagents remain the same and the final volume is decreased to 200 μl. For the analysis of inhibitors, the compound in question is dissolved in DMSO to a final concentration of 20 mM and added to the initial assay mixture for preincubation with the enzyme at a final volume of 2-5% (v/v). The reaction is started by the addition of NAD, and the initial rates measured as above. […] The designation “ND” is used where a given compound was not tested.
The term Ki denotes a dissociation constant, usually derived from enzyme kinetics or from competition with a known ligand. In turn, `COc1cc(NC(=O)Nc2cccc(CNC(=O)OCCO)c2)ccc1-c1cnco1` [Compound 134] had an inhibitory constant (Ki) of 1e-05 to 0.05 µM.
On the same count and under the same terms, for `COc1cc(NC(=O)Nc2cccc(CNC(=O)Oc3ccc(NC(C)=O)cc3)c2)ccc1-c1cnco1` [Compound 127] the value was 1e-05 to 0.05 µM; for `COC(=O)c1ccc(OC(=O)NCc2cccc(NC(=O)Nc3ccc(-c4cnco4)c(OC)c3)c2)cc1` [Compound 123], 1e-05 to 0.05 µM.

Still in this experiment, the particulars now being: IMPDH human type II, 15 to 50 nM enzyme, 37° C., tight-binding fit (Henderson); read-out: Ki.
On to `O=C(Nc1ccc(-c2cnco2)cc1)Nc1ccc(F)c(F)c1` [Compound 4], for which the Ki is greater than 10 µM.
Still for that read-out and setting: for `COc1cc(NC(=O)Nc2cccc(CNC(=O)OC3CCOCC3)c2)ccc1-c1cnco1` [Compound 131] the value was 1e-05 to 0.05 µM; for `COc1cc(NC(=O)Nc2cccc(CNC(=O)O[C@H]3CCOC3)c2)ccc1-c1cnco1` [Compound 120], 1e-05 to 0.05 µM.
Same read-out and setting: for `O=C(Nc1cccc([N+](=O)[O-])c1)Nc1ccc(-c2cnco2)c(Br)c1` [Compound 64] the value was 0.051 to 1 µM.
The same measure, in the same setting: for `COc1cc(NC(=O)Nc2cccc(CNC(=O)OCC3CCCN(C(=O)OC(C)(C)C)C3)c2)ccc1-c1cnco1` (stereo not shown) [Compound 149] the value was 1e-05 to 0.05 µM.
Take `COc1cc(NC(=O)Nc2cccc(CNC(=O)OC(C)(C)C)c2)ccc1-c1cnco1` [Compound 113]: the inhibition constant Ki was in the range of 1e-05 to 0.05 µM.
As for `Cc1cccc(NC(=O)Nc2ccc(-c3cnco3)c(Cl)c2)c1` [Compound 43], the Ki was in the range of 0.051 to 1 µM.
Same read-out and setting: for `CNS(=O)(=O)c1cccc(NC(=O)Nc2ccc(-c3cnco3)cc2)c1` [Compound 81] the value was 1 to 10 µM.
For `COC(=O)Cc1cccc(NC(=O)Nc2ccc(-c3cnco3)c(Cl)c2)c1` [Compound 57], the Ki was 0.051 to 1 µM.
`O=C(Nc1ccccc1)Nc1ccc(-c2cnco2)c(Cl)c1` [Compound 42]: the Ki lay in the range of 0.051 to 1 µM.
The same measure, in the same setting: next, `O=C(Nc1cccc([N+](=O)[O-])c1)Nc1ccc(-c2cnco2)c(Cl)c1` [Compound 78]: 0.051 to 1 µM.
The same measure, in the same setting: next, `Cc1cccc(NC(=O)Nc2ccc(-c3cnco3)c(C)c2)c1` [Compound 75]: 0.051 to 1 µM; `COCCCOC(=O)NCc1cccc(NC(=O)Nc2ccc(-c3cnco3)c(OC)c2)c1` [Compound 162]: 1e-05 to 0.05 µM.
Still for that read-out and setting: for `COc1cc(NC(=O)Nc2cccc(CNC(=O)OC3CCOC3)c2)ccc1-c1cnco1` (stereo not shown) [Compound 136] the value was 1e-05 to 0.05 µM; for `COc1ccc(OC)c(NC(=O)Nc2ccc(-c3cnco3)cc2)c1` [Compound 14], 1 to 10 µM.
Take `COc1cc(NC(=O)Nc2cccc(NC(=O)C(=O)c3cc(OC)c(OC)c(OC)c3)c2)ccc1-c1cnco1` [Compound 108]: the Ki was in the range of 0.051 to 1 µM.
Still for that read-out and setting: next, `COc1cc(NC(=O)Nc2cccc(NC(=O)CC3CCCC3)c2)ccc1-c1cnco1` [Compound 114]: 0.051 to 1 µM.
The same measure, in the same setting: for `COc1cc(NC(=O)Nc2cccc(CNC(=O)OCCCCO)c2)ccc1-c1cnco1` [Compound 140] the value was 1e-05 to 0.05 µM; for `CNc1cccc(NC(=O)Nc2ccc(-c3cnco3)c(Cl)c2)c1` [Compound 94], 0.051 to 1 µM; for `O=C(Nc1ccc(-c2cnco2)cc1)Nc1cccc(S(=O)(=O)NC2CCCCC2)c1` [Compound 80], 1 to 10 µM.
Still for that read-out and setting: for `CN(C(=O)C(F)(F)F)c1cccc(NC(=O)Nc2ccc(-c3cnco3)c(Cl)c2)c1` [Compound 93] the value was 1e-05 to 0.05 µM.
Turning to `COc1cc(NC(=O)Nc2cccc(CN(C)C(=O)OC(C)(C)C)c2)ccc1-c1cnco1` [Compound 117], the inhibitory constant (Ki) lay within 0.051 to 1 µM.
Same read-out and setting: next, `O=C(Nc1cccc(I)c1)Nc1ccc(-c2cnco2)c(Cl)c1` [Compound 73]: 0.051 to 1 µM; `COc1cc(NC(=O)Nc2cccc(CNC(=O)OCC3CCCCN3)c2)ccc1-c1cnco1` (stereo not shown) [Compound 159]: 1e-05 to 0.05 µM; `COc1cc(NC(=O)Nc2cccc(CNC(=O)OCC3CCCCN3C(=O)OC(C)(C)C)c2)ccc1-c1cnco1` (stereo not shown) [Compound 152]: 0.051 to 1 µM.
Same read-out and setting: next, `O=C(Nc1ccc(-c2cnco2)cc1)Nc1cccc(-c2cnco2)c1` [Compound 67]: 1 to 10 µM.
The same measure, in the same setting: for `Nc1cccc(NC(=O)Nc2ccc(-c3cnco3)c(Cl)c2)c1` [Compound 79] the value was 0.051 to 1 µM.
As to `COc1cc(NC(=O)Nc2cccc(C)c2)ccc1-c1cnco1` [Compound 55], the Ki fell in the range of 1e-05 to 0.05 µM.
Same read-out and setting: for `Cc1cccc(NC(=O)Nc2ccc(-c3cnco3)c(F)c2)c1` [Compound 46] the value was 0.051 to 1 µM.
Same read-out and setting: for `Cc1cccc(NC(=O)Nc2ccc(-c3cnco3)cc2)c1` [Compound 17] the value was 0.051 to 1 µM; for `COc1ccc(NC(=O)Nc2cccc([N+](=O)[O-])c2)cc1Cl` [Compound 52], 1 to 10 µM.
The same measure, in the same setting: for `O=C(Nc1ccc(-c2cnco2)cc1)Nc1cccnc1` [Compound 29] the value was greater than 10 µM.
`Nc1cccc(NC(=O)Nc2ccc(-c3cnco3)c(Br)c2)c1` [Compound 65]: the Ki fell in the range of 0.051 to 1 µM.
On to `COc1ccc(Cl)cc1NC(=O)Nc1ccc(OC)c(OC)c1` [Compound 35], for which the inhibition constant Ki lay within 1 to 10 µM.
Same read-out and setting: for `O=C(Nc1ccc(-c2cnco2)cc1)Nc1cccc(CO)c1` [Compound 25] the value was 1 to 10 µM; for `CN(C)c1cccc(NC(=O)Nc2ccc(-c3cnco3)cc2)c1` [Compound 49], 1 to 10 µM; for `COc1cc(NC(=O)Nc2cccc(CNC(=O)OCc3ccccc3)c2)ccc1-c1cnco1` [Compound 138], 1e-05 to 0.05 µM.
Same read-out and setting: for `COc1cccc(NC(=O)Nc2ccc(-c3cnco3)cc2)c1` [Compound 13] the value was 1 to 10 µM.
Still for that read-out and setting: for `COc1ccc(NC(=O)Nc2cccc(F)c2)cc1OC` [Compound 36] the value was 1 to 10 µM; for `COc1cc(NC(=O)Nc2cccc(NC(=O)OCc3cccnc3)c2)ccc1-c1cnco1` [Compound 98], 0.051 to 1 µM; for `O=C(Nc1ccc(-c2cnco2)cc1)Nc1cccc([N+](=O)[O-])c1` [Compound 15], 1 to 10 µM.
In the case of `COc1cc(NC(=O)Nc2cccc(NC(C)=O)c2)ccc1-c1cnco1` [Compound 84], the Ki fell in the range of 0.051 to 1 µM.
Still for that read-out and setting: next, `COc1cc(NC(=O)Nc2cccc(CN)c2)ccc1-c1cnco1` [Compound 105]: 0.051 to 1 µM; `COc1cc(NC(=O)Nc2cccc(CNC(=O)OCC3CCCCC3)c2)ccc1-c1cnco1` [Compound 135]: 1e-05 to 0.05 µM; `O=C(Nc1ccsc1)Nc1ccc(-c2cnco2)c(Cl)c1` [Compound 69]: 0.051 to 1 µM.
Consider `Cc1cc(NC(=O)Nc2ccccc2)ccc1-c1cnco1` [Compound 74], for which the Ki fell in the range of 0.051 to 1 µM.
Still for that read-out and setting: next, `O=C(Nc1ccc(-c2cnco2)cc1)Nc1ccc([N+](=O)[O-])cc1` [Compound 16]: 1 to 10 µM; `COc1cc(NC(=O)Nc2cccc(CNC(=O)OC3CCCCO3)c2)ccc1-c1cnco1` (racemic) [Compound 142]: 1e-05 to 0.05 µM; `CC(=O)OCc1cc(NC(=O)Nc2cccc(C)c2)ccc1-c1cnco1` [Compound 101]: 1 to 10 µM.
Same read-out and setting: next, `Cc1cccc(NC(=O)Nc2cccc([N+](=O)[O-])c2)c1` [Compound 32]: greater than 10 µM; `Cc1cccc(NC(=O)Nc2ccc(C#N)cc2)c1` [Compound 33]: greater than 10 µM; `O=C(Nc1ccc(-c2cnco2)cc1)Nc1ccccc1C(F)(F)F` [Compound 19]: 1 to 10 µM.
Still for that read-out and setting: for `COc1cc(NC(=O)Nc2cccc(CNC(=O)OC3CCCCC3)c2)ccc1-c1cnco1` [Compound 132] the value was 1e-05 to 0.05 µM.
With `COc1cc(NC(=O)Nc2cccc(N(C)C(=O)C(F)(F)F)c2)ccc1-c1cnco1` [Compound 97], the inhibition constant Ki lay within 1e-05 to 0.05 µM.
On to `COc1cc(NC(=O)Nc2cccc(CNC(=O)OC3C(=O)OCC3(C)C)c2)ccc1-c1cnco1` (stereo not shown) [Compound 144], for which the Ki is 0.051 to 1 µM.
Turning to `COc1cc(NC(=O)Nc2cccc(CNC(=O)OCC(C)C)c2)ccc1-c1cnco1` [Compound 124], the Ki was 1e-05 to 0.05 µM.
Still for that read-out and setting: for `O=C(Nc1ccccc1)Nc1ccc(-c2cnco2)c(F)c1` [Compound 45] the value was 1 to 10 µM.
Same read-out and setting: for `CC(=O)N(C)c1cccc(NC(=O)Nc2ccc(C#N)c(Cl)c2)c1` [Compound 163] the value was 0.051 to 1 µM; for `CSc1cccc(NC(=O)Nc2ccc(-c3cnco3)cc2)c1` [Compound 6], 1 to 10 µM.
Same read-out and setting: for `Cc1cccc(NC(=O)Nc2ccc(-c3ocnc3C)cc2)c1` [Compound 77] the value was 0.051 to 1 µM; for `O=C(Nc1ccc(-c2cnco2)cc1)Nc1cccc(F)c1` [Compound 20], 1 to 10 µM.
As for `O=C(Nc1ccc(-c2cnco2)c(Cl)c1)Nc1ccc(-c2cnco2)c(Cl)c1` [Compound 61], the inhibitory constant (Ki) was greater than 10 µM.
Still for that read-out and setting: next, `O=C(Nc1ccc(-c2cnco2)cc1)Nc1cccc(Cl)c1` [Compound 22]: 1 to 10 µM; `Cc1ccc(NC(=O)Nc2ccc(-c3cnco3)c(Cl)c2)s1` [Compound 86]: 1 to 10 µM.
Same read-out and setting: next, `COc1cc(NC(=O)Nc2cccc(CNC(=O)OCCCS(C)(=O)=O)c2)ccc1-c1cnco1` [Compound 157]: 0.051 to 1 µM; `C#Cc1cccc(NC(=O)Nc2ccc(-c3cnco3)cc2)c1` [Compound 26]: 1 to 10 µM.
For the compound `COc1cc(NC(=O)Nc2cccc(CNC(=O)OCCCNC(=O)OC(C)(C)C)c2)ccc1-c1cnco1` [Compound 139], the Ki fell in the range of 0.051 to 1 µM.

These data come from patent US7329681B2, “Inhibitors of IMPDH enzyme” (Vertex Pharmaceuticals Incorporated, priority 1996, dated 2008).
